Laboratory results from patent US20210238197A1, “NOVEL OXOQUINOLIZINE COMPOUNDS FOR THE TREATMENT AND PROPHYLAXIS OF BACTERIAL INFECTION” (Hoffmann-La Roche Inc., priority 2018, published 2021).
pIC50: −log10 of the molar value. ≈ marks a conversion by molar mass, not a printed value. Where two headings read alike, the source gives them in different places.

Legend:
S. aureus (ATCC29213) = experiment: 50% growth inhibitory concentration (IC50) determination assay, S. aureus; format: cell-based; details: Staphylococcus aureus, ATCC29213; Iso-Sensitest broth, growth by OD 600 nm over 16 h; <0.098 = detection limit
Description: (§1) The in vitro antimicrobial activity of the compounds against S. aureus (ATCC29213), K. pneumoniae (ATCC10031), and A. baumannii (ATCC17978), was determined according to the following procedure: The assay used a 10-points Iso-Sensitest broth medium to measure quantitatively the in vitro activity of the compounds against S. aureus ATCC29213, K. pneumoniae ATCC 10031, and A. baumannii ATCC17978. Stock compounds in DMSO were serially two-fold diluted (range from 50 to 0.097 μM final concentration) in 384 wells microtiter plates and inoculated with 49 μL the bacterial suspension in Iso-Sensitest broth medium to have a final cell concentration of ˜5×10^5 CFU/mL in a final volume/well of 50 μL/well. Microtiter plates were incubated at 35±2° C. Bacterial cell growth was determined with the measurement of optical density at λ=600 nm each 20 minutes over a time course of 16 h.

[1] = tested on: K. pneumoniae (ATCC10031); experiment: 50% growth inhibitory concentration (IC50) determination assay, K. pneumoniae; format: cell-based; details: Klebsiella pneumoniae, ATCC10031; Iso-Sensitest broth, growth by OD 600 nm over 16 h; <0.098 = detection limit
Description: as §1

A. baumannii (ATCC17978) = experiment: 50% growth inhibitory concentration (IC50) determination assay, A. baumannii; format: cell-based; details: Acinetobacter baumannii, ATCC17978; Iso-Sensitest broth, growth by OD 600 nm over 16 h; <0.098 = detection limit
Description: as §1

[2] = Cytotoxicity assay (HepG2, CellTiter-Blue); format: cell-based; details: human; HepG2 cells, 3 days treatment; >100 = detection limit
Description: The cytotoxicity of compounds of present invention was assessed by HepG2 assay. HepG2 cells (ATCC RB-8065™) were seeded into 96-well plates (1.2×10^4 cells per well) and treated with compounds for 3 days, cell viability was measured at day 3 post compound treatment using the CellTiter-Blue® Cell Viability Assay (Promega, Cat. No. G8082). […], of Cell titer blue buffer were added to each well of the cells, which were incubated for 3 hours at 37° C., and the fluorescence value was measured by a plate reader (Molecular Device SpectraMax M2). The CC50 value of each compound is plotted with GraphPad Prism using four parameter logistic equation.

[3] = tested on: multiple species and strains; experiment: microbe, parasite or virus in culture; design: MIC S9 / MIC S7 / MIC S11 / MIC S8 / MIC S10: unit not given beside the values; details: for MIC S9: E. coli ATCC 35218
Description: The MIC of antibacterial compounds against multiple species and strains was determined using the broth microdilution method according to M07-A10 Clinical and Laboratory Standards Institute (CLSI) guidelines (CLSI (2015) Methods for dilution antimicrobial susceptibility tests for bacteria that grow aerobically; Approved Standard, Tenth Edition. CLSI Document M7-A10 (ISBN 1-56238-987-4). Wayne, Pa.: Clinical and Laboratory Standards Institute, 19087, USA.). In short, bacterial strain preparation was performed on D1 and D2. […] 5-10 well-isolated colonies of similar morphology were selected and re-streaked onto fresh agar plates using sterile loops and incubated for 20-24 hr at 35±2° C. Bacterial strains were subcultured two times to ensure fresh inoculums for MIC screening. […] Alternatively, 1-2 colonies were transferred into 500 μL of saline and OD600 was adjusted to ˜0.1 using an OD meter. Bacterial inoculum was diluted by 1:280 for Gram-positive strains and 1:400 for Gram-negative strains into corresponding medium broth (CAMHB, CAMHB+3% lysed horse blood, HTM) (e.g. 35.6 μL of inoculum into 10 mL of CAMHB or 25 μL of inoculum into 10 mL of CAMHB). For compound plate, the compound stock solutions were prepared in 100% DMSO on the day of MIC screening and used immediately. Compound stock concentration=[(highest testing concentration)×100 μL/2 μL] (e.g. if the required highest testing concentration is 64 μg/mL in assay plates, stock concentration=64 μg/mL×100 μL/2 μL=3.2 mg/mL). […] 1 μL of each well was transferred in a new MTP, which served as the test plate by subsequent inoculation. The bacterial suspension prepared above is dispensed at 98 μL/well within 15 minutes after preparation. Negative controls (lack of bacterial cells) and growth control wells (lack of compound) were included in all plates. MTPs were incubated for 18-24 hours at 35±2° C. in ambient air. The MIC was recorded and CFUs were calculated on Day 4. The assay plate was placed on the top of MIC reader, and the magnification mirror was adjusted to read each wells, recording growth status as raw data. Photo images of each assay plates were recorded using Q Count 530 (Spiral Biotech). The MIC value of each compound, expressed as μg/mL, was determined as the lowest concentration required for complete growth inhibition (no visible growth).

[4] = Acinetobacter baumannii, ATCC19606, read-out: MIC S1, A. baumannii ATCC 19606
[5] = Acinetobacter baumannii, ATCC51432, read-out: MIC S2, A. baumannii ATCC 51432
[6] = Acinetobacter baumannii, ATCCBAA747, read-out: MIC S3, A. baumannii ATCC BAA-747
[7] = Escherichia coli, ATCC25922, read-out: MIC S11, E. coli ATCC 25922
[8] = Escherichia coli, ATCCBAA2340, read-out: MIC S10, E. coli ATCC BAA-2340
[9] = Klebsiella pneumoniae, ATCC10031, read-out: MIC S4, K. pneumoniae ATCC 10031
[10] = Klebsiella pneumoniae, ATCC700603, read-out: MIC S5, K. pneumoniae ATCC 700603
[11] = Klebsiella pneumoniae, ATCCBAA2146, read-out: MIC S6, K. pneumoniae ATCC BAA-2146
[12] = Pseudomonas aeruginosa, ATCC27853, read-out: MIC S7, P. aeruginosa ATCC 27853
[13] = Pseudomonas aeruginosa, ATCCBAA2113, read-out: MIC S8, P. aeruginosa ATCC BAA-2113

SMILES: CNc1cc(F)c(F)c2c1[nH]c1ncc(-c3ccc4ccc(C(=O)O)c(=O)n4c3)c(N3CC[C@@]4(C[C@H]4N)C3)c12 [Example 4.01B, 7-(4-((1R,3R)-1-amino-5-azaspiro[2.4]heptan-5-yl)-5,6-difluoro-8-(methylamino)-9H-pyrido[2,3-b]indol-3-yl)-4-oxo-4H-quinolizine-3-carboxylic acid]
- pIC50 (S. aureus (ATCC29213)): > 7.01
- pIC50 [1]: > 7.01
- pIC50 (A. baumannii (ATCC17978)): > 7.01
- CC50 at 3 days [2]: > 100000 nM

SMILES: CNc1cc(F)c(F)c2c1[nH]c1ncc(-c3ccc4ccc(C(=O)O)c(=O)n4c3)c(N3CC[C@]4(C[C@H]4N)C3)c12 [Example 4.01C, 7-(4-((1R,3S)-1-amino-5-azaspiro[2.4]heptan-5-yl)-5,6-difluoro-8-(methylamino)-9H-pyrido[2,3-b]indol-3-yl)-4-oxo-4H-quinolizine-3-carboxylic acid]
- pIC50 (S. aureus (ATCC29213)): > 7.01
- pIC50 [1]: > 7.01
- pIC50 (A. baumannii (ATCC17978)): > 7.01
- CC50 at 3 days [2]: > 100000 nM
- MIC [3, 4]: 0.592 µg/mL (≈ 1.12 µM)
- MIC [3, 5]: 0.592 µg/mL (≈ 1.12 µM)
- MIC [3, 6]: 1.19 µg/mL (≈ 2.24 µM)
- MIC S9 [3]: 0.592
- MIC [3, 7]: 0.222 µg/mL (≈ 0.418 µM)
- MIC [3, 8]: 1.19 µg/mL (≈ 2.24 µM)
- MIC [3, 9]: 0.074 µg/mL (≈ 0.139 µM)
- MIC [3, 10]: 2.37 µg/mL (≈ 4.47 µM)
- MIC [3, 11]: 2.37 µg/mL (≈ 4.47 µM)
- MIC [3, 12]: 1.19 µg/mL (≈ 2.24 µM)
- MIC [3, 13]: 2.37 µg/mL (≈ 4.47 µM)

SMILES: CNc1cc(F)c(F)c2c1[nH]c1ncc(-c3ccc4ccc(C(=O)O)c(=O)n4c3)c(N3CC[C@]4(C[C@@H]4N)C3)c12 [Example 4.01D, 7-(4-((1S,3S)-1-amino-5-azaspiro[2.4]heptan-5-yl)-5,6-difluoro-8-(methylamino)-9H-pyrido[2,3-b]indol-3-yl)-4-oxo-4H-quinolizine-3-carboxylic acid]
- pIC50 (S. aureus (ATCC29213)): > 7.01
- pIC50 [1]: > 7.01
- pIC50 (A. baumannii (ATCC17978)): > 7.01
- CC50 at 3 days [2]: > 100000 nM
- MIC [3, 4]: 0.592 µg/mL (≈ 1.12 µM)
- MIC [3, 5]: 1.19 µg/mL (≈ 2.24 µM)
- MIC [3, 6]: 1.19 µg/mL (≈ 2.24 µM)
- MIC S9 [3]: 1.186
- MIC [3, 7]: 0.111 µg/mL (≈ 0.209 µM)
- MIC [3, 8]: 0.592 µg/mL (≈ 1.12 µM)
- MIC [3, 9]: 0.037 µg/mL (≈ 0.0697 µM)
- MIC [3, 10]: 4.74 µg/mL (≈ 8.94 µM)
- MIC [3, 11]: 4.74 µg/mL (≈ 8.94 µM)
- MIC [3, 12]: 1.19 µg/mL (≈ 2.24 µM)
- MIC [3, 13]: 2.37 µg/mL (≈ 4.47 µM)

SMILES: CNc1cc(F)c(Cl)c2c1[nH]c1ncc(-c3ccc4ccc(C(=O)O)c(=O)n4c3)c(N3CC[C@]4(C[C@H]4N)C3)c12 [Example 5.01B, 7-(4-((1R,3S)-1-amino-5-azaspiro[2.4]heptan-5-yl)-5-chloro-6-fluoro-8-(methylamino)-9H-pyrido[2,3-b]indol-3-yl)-4-oxo-4H-quinolizine-3-carboxylic acid]
- CC50 at 3 days [2]: > 100000 nM
- MIC [3, 4]: 0.516 µg/mL (≈ 0.943 µM)
- MIC [3, 5]: 1.03 µg/mL (≈ 1.88 µM)
- MIC [3, 6]: 1.03 µg/mL (≈ 1.88 µM)
- MIC S9 [3]: 0.516
- MIC [3, 7]: 0.097 µg/mL (≈ 0.177 µM)
- MIC [3, 8]: 0.516 µg/mL (≈ 0.943 µM)
- MIC [3, 9]: 0.032 µg/mL (≈ 0.0585 µM)
- MIC [3, 10]: 4.13 µg/mL (≈ 7.55 µM)
- MIC [3, 11]: 4.13 µg/mL (≈ 7.55 µM)
- MIC [3, 12]: 2.07 µg/mL (≈ 3.78 µM)
- MIC [3, 13]: 2.07 µg/mL (≈ 3.78 µM)

SMILES: CNc1cc(F)c(Cl)c2c1[nH]c1ncc(-c3ccc4ccc(C(=O)O)c(=O)n4c3)c(N3CC[C@@]4(C[C@H]4N)C3)c12 [Example 5.01C, 7-(4-((1R,3R)-1-amino-5-azaspiro[2.4]heptan-5-yl)-5-chloro-6-fluoro-8-(methylamino)-9H-pyrido[2,3-b]indol-3-yl)-4-oxo-4H-quinolizine-3-carboxylic acid]
- pIC50 (S. aureus (ATCC29213)): > 7.01
- pIC50 [1]: > 7.01
- pIC50 (A. baumannii (ATCC17978)): > 7.01
- CC50 at 3 days [2]: > 100000 nM
- MIC [3, 4]: 0.516 µg/mL (≈ 0.943 µM)
- MIC [3, 5]: 0.258 µg/mL (≈ 0.472 µM)
- MIC [3, 6]: 0.516 µg/mL (≈ 0.943 µM)
- MIC S9 [3]: 0.258
- MIC [3, 7]: 0.194 µg/mL (≈ 0.355 µM)
- MIC [3, 8]: 0.258 µg/mL (≈ 0.472 µM)
- MIC [3, 9]: 0.032 µg/mL (≈ 0.0585 µM)
- MIC [3, 10]: 2.07 µg/mL (≈ 3.78 µM)
- MIC [3, 11]: 2.07 µg/mL (≈ 3.78 µM)
- MIC [3, 12]: 1.03 µg/mL (≈ 1.88 µM)
- MIC [3, 13]: 2.07 µg/mL (≈ 3.78 µM)
